Source: ChEMBL document CHEMBL1150808, “General behavior, toxicity, and cytotoxic activity of elenoside, a lignan from Justicia hyssopifolia” (J Nat Prod, 2001)

Tests used:
NCI-H226 [1] = experiment: Growth inhibition of human NCI-H226 cells; assay type: functional
NCI-H522 [2] = experiment: Growth inhibition of human NCI-H522 cells; assay type: functional
Mus musculus [3] = species on record: Mus musculus; experiment: Toxicity in Swiss albino mouse assessed as reduction in convulsions by Irwin test; assay type: organism-based; settings: in vivo
UO-31 [4] = experiment: Growth inhibition of human UO31 cells at 100 uM; assay type: functional; settings: read-out: GI
Mus musculus [5] = experiment: Toxicity in Swiss albino mouse assessed as loss of spontaneous movement at 25 mg/kg, ip after 1 hr by Lim test; assay type: organism-based; set-up: dose 25 mg/kg, route intraperitoneal; settings: in vivo
UACC-257 [6] = experiment: Growth inhibition of human UACC257 cells; assay type: functional
DMS-273 [7] = experiment: Growth inhibition of human DMS273 cells; assay type: functional
HCT-116 [8] = experiment: Growth inhibition of human HCT116 cells at 100 uM; assay type: functional; settings: read-out: GI
MOLT-4 [9] = experiment: Growth inhibition of human MOLT4 cells; assay type: functional
HCC 2998 [10] = experiment: Growth inhibition of human HCC2998 cells; assay type: functional
CCRF-CEM [11] = experiment: Growth inhibition of human CCRF-CEM cells at 100 uM; assay type: functional; settings: read-out: GI
SNB-75 [12] = experiment: Growth inhibition of human SNB75 cells; assay type: functional
Mus musculus [13] = species on record: Mus musculus; experiment: Toxicity in Swiss albino mouse assessed as reduction in motor affective response by Irwin test; assay type: organism-based; settings: in vivo
Mus musculus [14] = species on record: Mus musculus; experiment: Toxicity in Swiss albino mouse assessed as reduction in tremors by Irwin test; assay type: organism-based; settings: in vivo
Mus musculus [15] = experiment: Toxicity in Swiss albino mouse assessed as loss of spontaneous movement at 50 mg/kg, ip after 1 hr by Lim test; assay type: organism-based; set-up: dose 50 mg/kg, route intraperitoneal; settings: in vivo
Mus musculus [16] = experiment: Toxicity in Swiss albino mouse assessed as loss of muscle tone at 50 mg/kg, ip after 1 hr by Lim test; assay type: organism-based, Muscle tissue; set-up: dose 50 mg/kg, route intraperitoneal; settings: in vivo
NCI-H23 [17] = experiment: Growth inhibition of human NCI-H23 cells at 100 uM; assay type: functional; settings: read-out: GI
OVCAR-3 [18] = experiment: Growth inhibition of human OVCAR-3 cells at 100 uM; assay type: functional; settings: read-out: GI
K562 [19] = experiment: Growth inhibition of human K562 cells; assay type: functional
M19-MEL [20] = experiment: Growth inhibition of human M19-MEL cells; assay type: functional
SF-268 [21] = experiment: Growth inhibition of human SF268 cells; assay type: functional
HCC 2998 [22] = experiment: Growth inhibition of human HCC2998 cells at 100 uM; assay type: functional; settings: read-out: GI
Mus musculus [23] = experiment: Toxicity in Swiss albino mouse assessed as loss of righting reflex at 10 mg/kg, ip after 1 hr by Lim test; assay type: organism-based; set-up: dose 10 mg/kg, route intraperitoneal; settings: in vivo
Mus musculus [24] = species on record: Mus musculus; experiment: Toxicity in Swiss albino mouse assessed as loss of hypotonic gait after 30 mins by Irwin test; assay type: organism-based; settings: in vivo, 0.5 h
Mus musculus [25] = experiment: Toxicity in Swiss albino mouse assessed as loss of righting reflex at 25 mg/kg, ip after 1 hr by Lim test; assay type: organism-based; set-up: dose 25 mg/kg, route intraperitoneal; settings: in vivo
RPMI-8226 [26] = experiment: Growth inhibition of human RPMI8226 cells; assay type: functional
Mus musculus [27] = species on record: Mus musculus; experiment: Toxicity in Swiss albino mouse assessed as loss of sight after 30 mins by Irwin test; assay type: organism-based; settings: in vivo, 0.5 h
OVCAR-3 [28] = experiment: Growth inhibition of human OVCAR-3 cells; assay type: functional
Mus musculus [29] = experiment: Toxicity in Swiss albino mouse assessed as loss of righting reflex at 50 mg/kg, ip after 1 hr by Lim test; assay type: organism-based; set-up: dose 50 mg/kg, route intraperitoneal; settings: in vivo
Mus musculus [30] = experiment: Toxicity in Swiss albino mouse assessed as loss of muscle tone at 10 mg/kg, ip after 1 hr by Lim test; assay type: organism-based, Muscle tissue; set-up: dose 10 mg/kg, route intraperitoneal; settings: in vivo
SNB-75 [31] = experiment: Growth inhibition of human SNB75 cells at 100 uM; assay type: functional; settings: read-out: GI
SK-MEL-2 [32] = experiment: Growth inhibition of human SK-MEL-2 cells; assay type: functional
Mus musculus [33] = species on record: Mus musculus; experiment: Toxicity in Swiss albino mouse assessed as reduction in muscular tone after 180 mins by Irwin test; assay type: organism-based; settings: in vivo, 3 h
Mus musculus [34] = species on record: Mus musculus; experiment: Toxicity in Swiss albino mouse assessed as reduction in spontaneous activity after 60 mins by Irwin test; assay type: organism-based; settings: in vivo, 1 h
HCT-116 [35] = experiment: Growth inhibition of human HCT116 cells; assay type: functional
K562 [36] = experiment: Growth inhibition of human K562 cells at 100 uM; assay type: functional; settings: read-out: GI
RPMI-8226 [37] = experiment: Growth inhibition of human RPMI8226 cells at 100 uM; assay type: functional; settings: read-out: GI
SNB-19 [38] = experiment: Growth inhibition of human SNB19 cells at 100 uM; assay type: functional; settings: read-out: GI
SNB-19 [39] = experiment: Growth inhibition of human SNB19 cells; assay type: functional
Mus musculus [40] = species on record: Mus musculus; experiment: Toxicity in Swiss albino mouse assessed as reduction in sensory-motor response by Irwin test; assay type: organism-based; settings: in vivo
NCI-H226 [41] = experiment: Growth inhibition of human NCI-H226 cells at 100 uM; assay type: functional; settings: read-out: GI
SK-MEL-5 [42] = experiment: Growth inhibition of human SK-MEL-5 cells at 100 uM; assay type: functional; settings: read-out: GI
NCI-H23 [43] = experiment: Growth inhibition of human NCI-H23 cells
SF-268 [44] = experiment: Growth inhibition of human SF268 cells at 100 uM; assay type: functional; settings: read-out: GI
Mus musculus [45] = experiment: Toxicity in Swiss albino mouse assessed as loss of spontaneous movement at 10 mg/kg, ip after 1 hr by Lim test; assay type: organism-based; set-up: dose 10 mg/kg, route intraperitoneal; settings: in vivo
CCRF-CEM [46] = experiment: Growth inhibition of human CCRF-CEM cells; assay type: functional
SK-MEL-5 [47] = experiment: Growth inhibition of human SK-MEL-5 cells; assay type: functional
Mus musculus [48] = species on record: Mus musculus; experiment: Toxicity in Swiss albino mouse assessed as reduction in twitches by Irwin test; assay type: organism-based; settings: in vivo
M19-MEL [49] = experiment: Growth inhibition of human M19-MEL cells at 100 uM; assay type: functional; settings: read-out: GI
KM12 [50] = experiment: Growth inhibition of human KM12 cells at 100 uM; assay type: functional; settings: read-out: GI
Mus musculus [51] = species on record: Mus musculus; experiment: Toxicity in Swiss albino mouse assessed as reduction in equilibrium after 180 mins by Irwin test; assay type: organism-based; settings: in vivo, 3 h
KM12 [52] = experiment: Growth inhibition of human KM12 cells; assay type: functional
NCI-H522 [53] = experiment: Growth inhibition of human NCI-H522 cells at 100 uM; assay type: functional; settings: read-out: GI
[54] = Toxicity in Swiss albino mouse assessed as death after 5 days assessed after 24 hrs post treatment by Irwin test; assay type: organism-based; settings: in vivo
DMS-273 [55] = experiment: Growth inhibition of human DMS273 cells at 100 uM; assay type: functional; settings: read-out: GI
Mus musculus [56] = species on record: Mus musculus; experiment: Toxicity in Swiss albino mouse assessed as loss of righting reflex after 30 mins by Irwin test; assay type: organism-based; settings: in vivo, 0.5 h
SK-MEL-2 [57] = experiment: Growth inhibition of human SK-MEL-2 cells at 100 uM; assay type: functional; settings: read-out: GI
OVCAR-4 [58] = experiment: Growth inhibition of human OVCAR4 cells at 100 uM; assay type: functional; settings: read-out: GI
UACC-257 [59] = experiment: Growth inhibition of human UACC257 cells at 100 uM; assay type: functional; settings: read-out: GI
OVCAR-4 [60] = experiment: Growth inhibition of human OVCAR4 cells; assay type: functional
UO-31 [61] = experiment: Growth inhibition of human UO31 cells; assay type: functional
Mus musculus [62] = species on record: Mus musculus; experiment: Toxicity in Swiss albino mouse assessed as involvement of autonomic nervous system; assay type: organism-based; settings: in vivo
MOLT-4 [63] = experiment: Growth inhibition of human MOLT4 cells at 100 uM; assay type: functional; settings: read-out: GI
Mus musculus [64] = experiment: Toxicity in Swiss albino mouse assessed as loss of muscle tone at 25 mg/kg, ip after 1 hr by Lim test; assay type: organism-based, Muscle tissue; set-up: dose 25 mg/kg, route intraperitoneal; settings: in vivo

O=C1OCc2c1cc1ccc(O)c(O[C@@H]3O[C@H](CO)[C@@H](O)[C@H](O)[C@H]3O)c1c2-c1ccc2c(c1)OCO2 [ELENOSIDE]
GI50 (NCI-H226 [1]): 48.4 µM | GI50 (NCI-H522 [2]): 22.6 µM | Activity (Mus musculus [3]): Non-toxic | inhibition of growth at 100 µM (UO-31 [4]): 80% | Activity (Mus musculus [5]): 50% | GI50 (UACC-257 [6]): 37.9 µM | GI50 (DMS-273 [7]): 47.5 µM | inhibition of growth at 100 µM (HCT-116 [8]): 77% | GI50 (MOLT-4 [9]): 34.3 µM | GI50 (HCC 2998 [10]): 38.2 µM | inhibition of growth at 100 µM (CCRF-CEM [11]): 84% | GI50 (SNB-75 [12]): 55.2 µM | Activity (Mus musculus [13]): Dose-dependent effect | Activity (Mus musculus [14]): Non-toxic | Activity (Mus musculus [15]): 60% | Activity (Mus musculus [16]): 60% | inhibition of growth at 100 µM (NCI-H23 [17]): 72% | inhibition of growth at 100 µM (OVCAR-3 [18]): 60% | GI50 (K562 [19]): 39.5 µM | GI50 (M19-MEL [20]): 38.2 µM | GI50 (SF-268 [21]): 57.1 µM | inhibition of growth at 100 µM (HCC 2998 [22]): 87% | Activity (Mus musculus [23]): 40% | Activity (Mus musculus [24]): Toxic | Activity (Mus musculus [25]): 20% | GI50 (RPMI-8226 [26]): 34.6 µM | Activity (Mus musculus [27]): Toxic | GI50 (OVCAR-3 [28]): 64.6 µM | Activity (Mus musculus [29]): 20% | Activity (Mus musculus [30]): 90% | inhibition of growth at 100 µM (SNB-75 [31]): 66% | GI50 (SK-MEL-2 [32]): 33.5 µM | Activity (Mus musculus [33]): Dose-dependent effect | Activity (Mus musculus [34]): Toxic | GI50 (HCT-116 [35]): 39.7 µM | inhibition of growth at 100 µM (K562 [36]): 79% | inhibition of growth at 100 µM (RPMI-8226 [37]): 97% | inhibition of growth at 100 µM (SNB-19 [38]): 81% | GI50 (SNB-19 [39]): 36 µM | Activity (Mus musculus [40]): Dose-dependent effect | inhibition of growth at 100 µM (NCI-H226 [41]): 72% | inhibition of growth at 100 µM (SK-MEL-5 [42]): 114% | GI50 (NCI-H23 [43]): 47.5 µM | inhibition of growth at 100 µM (SF-268 [44]): 70% | Activity (Mus musculus [45]): 90% | GI50 (CCRF-CEM [46]): 34.9 µM | GI50 (SK-MEL-5 [47]): 26.2 µM | Activity (Mus musculus [48]): Non-toxic | inhibition of growth at 100 µM (M19-MEL [49]): 81% | inhibition of growth at 100 µM (KM12 [50]): 77% | Activity (Mus musculus [51]): Toxic | GI50 (KM12 [52]): 23.4 µM | inhibition of growth at 100 µM (NCI-H522 [53]): 126% | LD50 at 5 days [54]: 3.05 mg/kg | inhibition of growth at 100 µM (DMS-273 [55]): 67% | Activity (Mus musculus [56]): Toxic | inhibition of growth at 100 µM (SK-MEL-2 [57]): 84% | inhibition of growth at 100 µM (OVCAR-4 [58]): 66% | inhibition of growth at 100 µM (UACC-257 [59]): 72% | GI50 (OVCAR-4 [60]): 56.2 µM | GI50 (UO-31 [61]): 27.2 µM | Activity (Mus musculus [62]): Toxic | inhibition of growth at 100 µM (MOLT-4 [63]): 88% | Activity (Mus musculus [64]): 50%
